Experimental data reported in ChEMBL document CHEMBL1201862, “PubChem BioAssay data set” (2004).
Where a name gives a salt, the structure may show the parent alone. Active and inactive are the calls of the source.

Experiments:
[1] = inhibitors of Vif binding to APOBEC3G peptide, primary screen, biochemical, TR-FRET, GST-Vif 1-94, biotin-A3G peptide, dose response retest (AID 1117319); assay type: functional;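 further: TR-FRET signal of purified GST-Vif binding a biotinylated A3G peptide; inhibitors lower the FRET signal by blocking Vif and A3G binding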
[2] = biological target: T1, Aminopeptidase N (Plasmodium falciparum FcB1/Columbia, UniProt O96935); experiment: P. falciparum M1AAP inhibitors, biochemical, fluorogenic H-Leu-NHMec substrate, 1536-well (AID 1445); parameters: species or system Plasmodium falciparum 3D7, 3D7
T1 sequence (O96935 whole entry): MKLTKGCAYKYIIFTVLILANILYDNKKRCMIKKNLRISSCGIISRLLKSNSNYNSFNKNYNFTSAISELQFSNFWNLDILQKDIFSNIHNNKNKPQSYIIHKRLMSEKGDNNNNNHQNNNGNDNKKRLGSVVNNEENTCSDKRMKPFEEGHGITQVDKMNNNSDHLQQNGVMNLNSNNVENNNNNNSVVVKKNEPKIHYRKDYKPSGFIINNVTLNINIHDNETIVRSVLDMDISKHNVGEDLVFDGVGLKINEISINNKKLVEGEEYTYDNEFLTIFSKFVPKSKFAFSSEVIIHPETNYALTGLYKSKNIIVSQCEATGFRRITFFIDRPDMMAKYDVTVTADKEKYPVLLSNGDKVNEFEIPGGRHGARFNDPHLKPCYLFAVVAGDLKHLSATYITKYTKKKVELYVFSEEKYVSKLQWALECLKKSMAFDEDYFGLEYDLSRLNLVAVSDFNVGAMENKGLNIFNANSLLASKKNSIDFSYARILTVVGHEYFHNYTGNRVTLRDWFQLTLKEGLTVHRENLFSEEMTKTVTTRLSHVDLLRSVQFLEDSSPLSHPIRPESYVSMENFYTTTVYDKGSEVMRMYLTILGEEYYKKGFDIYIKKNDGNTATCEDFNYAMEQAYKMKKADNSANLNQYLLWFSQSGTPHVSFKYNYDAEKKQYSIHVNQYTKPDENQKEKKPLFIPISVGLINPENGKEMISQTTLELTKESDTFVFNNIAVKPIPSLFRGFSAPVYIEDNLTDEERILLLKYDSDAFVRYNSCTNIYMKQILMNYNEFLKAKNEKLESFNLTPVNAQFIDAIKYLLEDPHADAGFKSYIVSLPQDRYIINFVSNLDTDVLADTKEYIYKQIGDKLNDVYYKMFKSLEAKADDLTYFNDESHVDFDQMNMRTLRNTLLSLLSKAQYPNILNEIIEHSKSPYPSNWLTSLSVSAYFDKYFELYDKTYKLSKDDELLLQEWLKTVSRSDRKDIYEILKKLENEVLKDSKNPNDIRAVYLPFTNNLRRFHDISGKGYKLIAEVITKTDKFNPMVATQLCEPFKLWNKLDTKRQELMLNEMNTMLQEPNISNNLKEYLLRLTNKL

[3] = Luminescence Cell-Based Dose Retest to Confirm Inhibitors of Cancer Stem Cells. [Related pubchem assays (depositor defined):AID2717, AID2721]; assay type: functional; conditions: Homo sapiens
[4] = biological target: Albumin (Bos taurus, UniProt P02769); experiment: Counterscreen for inhibitors of T-cell receptor (TCR)-CD3 interaction: Fluorescence-based biochemical high throughput dose response assay to identify inhibitors of T-cell receptor (TCR)-CD3 interaction using a TAMRA-labeled BSA probe.; assay type: functional
Albumin, sequence (P02769 whole entry): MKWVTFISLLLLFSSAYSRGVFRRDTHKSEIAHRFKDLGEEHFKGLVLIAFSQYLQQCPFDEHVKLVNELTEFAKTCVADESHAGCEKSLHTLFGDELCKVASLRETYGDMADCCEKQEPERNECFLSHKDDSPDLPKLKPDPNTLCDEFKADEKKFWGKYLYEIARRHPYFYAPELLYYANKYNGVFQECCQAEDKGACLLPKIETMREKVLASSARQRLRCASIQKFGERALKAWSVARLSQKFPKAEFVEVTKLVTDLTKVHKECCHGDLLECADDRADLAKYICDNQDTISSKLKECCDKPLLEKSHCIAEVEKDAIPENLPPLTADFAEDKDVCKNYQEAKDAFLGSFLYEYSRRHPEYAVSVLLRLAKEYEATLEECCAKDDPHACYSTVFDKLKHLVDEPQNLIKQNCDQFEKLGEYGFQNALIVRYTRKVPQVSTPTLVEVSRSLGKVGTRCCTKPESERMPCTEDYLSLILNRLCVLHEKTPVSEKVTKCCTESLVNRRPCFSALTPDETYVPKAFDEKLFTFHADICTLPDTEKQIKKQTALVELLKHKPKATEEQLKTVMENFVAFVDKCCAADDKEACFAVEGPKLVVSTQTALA

[5] = biological target: T2, Heat shock factor protein 1 (Mus musculus, UniProt P38532); experiment: HSF1 potentiators in luciferase reporter cells, confirmation, cell-based, NIH3T3, luminescence, dose retest (AID 435004); assay type: functional;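 further: stress induced by proteasome inhibitor MG132 added 30 min after compound; luciferase reporter driven by HSF1 response element in NIH3T3 cells; actives raise luminescence as potentiators of the MG132 stress response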
T2 sequence (P38532 whole entry): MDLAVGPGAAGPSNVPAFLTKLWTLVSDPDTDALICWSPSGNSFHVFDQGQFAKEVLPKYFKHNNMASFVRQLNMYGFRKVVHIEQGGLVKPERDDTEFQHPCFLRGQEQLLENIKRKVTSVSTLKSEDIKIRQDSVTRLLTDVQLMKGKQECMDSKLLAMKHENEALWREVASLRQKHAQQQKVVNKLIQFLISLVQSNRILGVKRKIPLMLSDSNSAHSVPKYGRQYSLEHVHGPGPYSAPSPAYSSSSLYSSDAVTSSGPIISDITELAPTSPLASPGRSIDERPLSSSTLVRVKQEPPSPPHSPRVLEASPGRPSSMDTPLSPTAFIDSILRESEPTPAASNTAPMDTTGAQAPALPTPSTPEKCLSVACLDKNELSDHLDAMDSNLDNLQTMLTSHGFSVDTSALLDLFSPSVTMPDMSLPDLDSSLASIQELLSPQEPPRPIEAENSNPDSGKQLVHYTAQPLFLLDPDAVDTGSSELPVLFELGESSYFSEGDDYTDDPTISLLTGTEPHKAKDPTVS

[6] = biological target: T3, Oxysterols receptor LXR-beta (Homo sapiens, UniProt P55055); assay type: functional, cell-based;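 further: Cell-based luminescence dose-response assay of agonist activity at LXR, run as a confirmatory counterscreen to a daf-12 agonist screen; agonist potency from rising luciferase signal of a Gal4-LXR reporter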
T3 sequence (P55055 whole entry): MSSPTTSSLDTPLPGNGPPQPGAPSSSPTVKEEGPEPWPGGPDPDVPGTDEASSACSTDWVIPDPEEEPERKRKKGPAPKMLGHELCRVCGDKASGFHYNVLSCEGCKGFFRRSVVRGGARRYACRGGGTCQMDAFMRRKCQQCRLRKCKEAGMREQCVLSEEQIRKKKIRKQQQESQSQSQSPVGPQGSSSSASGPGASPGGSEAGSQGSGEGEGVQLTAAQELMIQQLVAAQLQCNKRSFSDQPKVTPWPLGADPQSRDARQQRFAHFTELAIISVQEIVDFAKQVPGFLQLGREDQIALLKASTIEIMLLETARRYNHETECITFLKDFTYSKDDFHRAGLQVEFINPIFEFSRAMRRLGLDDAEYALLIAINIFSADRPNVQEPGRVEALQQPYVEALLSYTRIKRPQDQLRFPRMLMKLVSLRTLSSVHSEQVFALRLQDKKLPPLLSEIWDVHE

[7] = cells
[8] = biological target: Cytochrome P450 3A4 (Homo sapiens, UniProt P08684); conditions: Potency;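 further: confirmatory qHTS run detecting inhibitors and substrates of CYP3A4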
Cytochrome P450 3A4, sequence (P08684 whole entry): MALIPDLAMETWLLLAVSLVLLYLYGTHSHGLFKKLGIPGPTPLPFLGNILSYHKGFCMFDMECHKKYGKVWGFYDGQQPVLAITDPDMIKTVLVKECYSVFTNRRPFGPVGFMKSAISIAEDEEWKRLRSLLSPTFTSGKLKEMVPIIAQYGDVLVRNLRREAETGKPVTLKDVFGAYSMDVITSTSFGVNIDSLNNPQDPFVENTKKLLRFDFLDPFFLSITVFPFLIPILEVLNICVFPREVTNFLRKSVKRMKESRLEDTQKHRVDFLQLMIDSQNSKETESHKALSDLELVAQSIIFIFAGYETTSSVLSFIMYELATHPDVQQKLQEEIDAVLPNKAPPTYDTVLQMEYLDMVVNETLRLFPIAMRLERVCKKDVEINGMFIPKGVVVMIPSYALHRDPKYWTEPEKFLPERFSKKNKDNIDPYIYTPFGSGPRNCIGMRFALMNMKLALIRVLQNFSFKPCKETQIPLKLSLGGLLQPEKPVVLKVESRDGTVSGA

[9] = biological target: T4, Leucine aminopeptidase (Plasmodium falciparum 3D7, UniProt Q8IL11); experiment: P. falciparum M17LAP inhibitors, primary screen, biochemical, fluorogenic H-Leu-NHMec substrate, 1536-well (AID 1619); assay type: functional
T4 sequence (Q8IL11 whole entry): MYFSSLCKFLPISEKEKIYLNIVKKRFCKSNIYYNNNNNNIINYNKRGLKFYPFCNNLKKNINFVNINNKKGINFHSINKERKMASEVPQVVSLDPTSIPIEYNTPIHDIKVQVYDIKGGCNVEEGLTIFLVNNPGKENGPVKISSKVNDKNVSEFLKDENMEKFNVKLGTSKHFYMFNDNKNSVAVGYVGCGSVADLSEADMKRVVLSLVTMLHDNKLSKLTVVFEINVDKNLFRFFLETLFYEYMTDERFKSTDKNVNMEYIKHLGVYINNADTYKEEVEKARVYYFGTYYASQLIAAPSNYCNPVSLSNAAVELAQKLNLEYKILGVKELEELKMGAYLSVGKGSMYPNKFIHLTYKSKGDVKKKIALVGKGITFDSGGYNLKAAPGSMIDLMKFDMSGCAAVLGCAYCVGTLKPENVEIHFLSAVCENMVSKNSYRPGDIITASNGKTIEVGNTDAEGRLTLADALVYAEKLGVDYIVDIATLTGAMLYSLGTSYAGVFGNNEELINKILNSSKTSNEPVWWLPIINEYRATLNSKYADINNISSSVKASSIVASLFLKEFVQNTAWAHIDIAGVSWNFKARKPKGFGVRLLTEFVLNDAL

[10] = biological target: DNA dC->dU-editing enzyme APOBEC-3G (Homo sapiens, UniProt Q9HC16); experiment: Dose Response confirmation of small molecule APOBEC3G DNA Deaminase Inhibitors via a fluorescence-based single-stranded DNA deaminase assay. [Related pubchem assays (depositor defined):AID493012, AID493028]; assay type: functional
DNA dC->dU-editing enzyme APOBEC-3G, sequence (Q9HC16 whole entry): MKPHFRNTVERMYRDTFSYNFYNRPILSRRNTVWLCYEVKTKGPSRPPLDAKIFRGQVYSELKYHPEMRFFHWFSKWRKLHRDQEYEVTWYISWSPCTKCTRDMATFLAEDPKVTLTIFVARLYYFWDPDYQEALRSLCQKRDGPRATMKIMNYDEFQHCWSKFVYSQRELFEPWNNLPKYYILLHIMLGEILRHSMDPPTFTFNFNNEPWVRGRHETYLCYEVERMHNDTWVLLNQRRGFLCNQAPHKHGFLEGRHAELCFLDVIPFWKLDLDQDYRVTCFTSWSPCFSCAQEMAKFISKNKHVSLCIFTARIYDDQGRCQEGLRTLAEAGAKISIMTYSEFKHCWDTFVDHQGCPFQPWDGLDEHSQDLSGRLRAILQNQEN

[11] = biological target: Voltage-dependent T-type calcium channel subunit alpha-1H (Homo sapiens, UniProt O95180); assay type: functional;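 further: channel activity triggered by adding a high calcium stimulation buffer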
Voltage-dependent T-type calcium channel subunit alpha-1H, sequence (O95180 whole entry): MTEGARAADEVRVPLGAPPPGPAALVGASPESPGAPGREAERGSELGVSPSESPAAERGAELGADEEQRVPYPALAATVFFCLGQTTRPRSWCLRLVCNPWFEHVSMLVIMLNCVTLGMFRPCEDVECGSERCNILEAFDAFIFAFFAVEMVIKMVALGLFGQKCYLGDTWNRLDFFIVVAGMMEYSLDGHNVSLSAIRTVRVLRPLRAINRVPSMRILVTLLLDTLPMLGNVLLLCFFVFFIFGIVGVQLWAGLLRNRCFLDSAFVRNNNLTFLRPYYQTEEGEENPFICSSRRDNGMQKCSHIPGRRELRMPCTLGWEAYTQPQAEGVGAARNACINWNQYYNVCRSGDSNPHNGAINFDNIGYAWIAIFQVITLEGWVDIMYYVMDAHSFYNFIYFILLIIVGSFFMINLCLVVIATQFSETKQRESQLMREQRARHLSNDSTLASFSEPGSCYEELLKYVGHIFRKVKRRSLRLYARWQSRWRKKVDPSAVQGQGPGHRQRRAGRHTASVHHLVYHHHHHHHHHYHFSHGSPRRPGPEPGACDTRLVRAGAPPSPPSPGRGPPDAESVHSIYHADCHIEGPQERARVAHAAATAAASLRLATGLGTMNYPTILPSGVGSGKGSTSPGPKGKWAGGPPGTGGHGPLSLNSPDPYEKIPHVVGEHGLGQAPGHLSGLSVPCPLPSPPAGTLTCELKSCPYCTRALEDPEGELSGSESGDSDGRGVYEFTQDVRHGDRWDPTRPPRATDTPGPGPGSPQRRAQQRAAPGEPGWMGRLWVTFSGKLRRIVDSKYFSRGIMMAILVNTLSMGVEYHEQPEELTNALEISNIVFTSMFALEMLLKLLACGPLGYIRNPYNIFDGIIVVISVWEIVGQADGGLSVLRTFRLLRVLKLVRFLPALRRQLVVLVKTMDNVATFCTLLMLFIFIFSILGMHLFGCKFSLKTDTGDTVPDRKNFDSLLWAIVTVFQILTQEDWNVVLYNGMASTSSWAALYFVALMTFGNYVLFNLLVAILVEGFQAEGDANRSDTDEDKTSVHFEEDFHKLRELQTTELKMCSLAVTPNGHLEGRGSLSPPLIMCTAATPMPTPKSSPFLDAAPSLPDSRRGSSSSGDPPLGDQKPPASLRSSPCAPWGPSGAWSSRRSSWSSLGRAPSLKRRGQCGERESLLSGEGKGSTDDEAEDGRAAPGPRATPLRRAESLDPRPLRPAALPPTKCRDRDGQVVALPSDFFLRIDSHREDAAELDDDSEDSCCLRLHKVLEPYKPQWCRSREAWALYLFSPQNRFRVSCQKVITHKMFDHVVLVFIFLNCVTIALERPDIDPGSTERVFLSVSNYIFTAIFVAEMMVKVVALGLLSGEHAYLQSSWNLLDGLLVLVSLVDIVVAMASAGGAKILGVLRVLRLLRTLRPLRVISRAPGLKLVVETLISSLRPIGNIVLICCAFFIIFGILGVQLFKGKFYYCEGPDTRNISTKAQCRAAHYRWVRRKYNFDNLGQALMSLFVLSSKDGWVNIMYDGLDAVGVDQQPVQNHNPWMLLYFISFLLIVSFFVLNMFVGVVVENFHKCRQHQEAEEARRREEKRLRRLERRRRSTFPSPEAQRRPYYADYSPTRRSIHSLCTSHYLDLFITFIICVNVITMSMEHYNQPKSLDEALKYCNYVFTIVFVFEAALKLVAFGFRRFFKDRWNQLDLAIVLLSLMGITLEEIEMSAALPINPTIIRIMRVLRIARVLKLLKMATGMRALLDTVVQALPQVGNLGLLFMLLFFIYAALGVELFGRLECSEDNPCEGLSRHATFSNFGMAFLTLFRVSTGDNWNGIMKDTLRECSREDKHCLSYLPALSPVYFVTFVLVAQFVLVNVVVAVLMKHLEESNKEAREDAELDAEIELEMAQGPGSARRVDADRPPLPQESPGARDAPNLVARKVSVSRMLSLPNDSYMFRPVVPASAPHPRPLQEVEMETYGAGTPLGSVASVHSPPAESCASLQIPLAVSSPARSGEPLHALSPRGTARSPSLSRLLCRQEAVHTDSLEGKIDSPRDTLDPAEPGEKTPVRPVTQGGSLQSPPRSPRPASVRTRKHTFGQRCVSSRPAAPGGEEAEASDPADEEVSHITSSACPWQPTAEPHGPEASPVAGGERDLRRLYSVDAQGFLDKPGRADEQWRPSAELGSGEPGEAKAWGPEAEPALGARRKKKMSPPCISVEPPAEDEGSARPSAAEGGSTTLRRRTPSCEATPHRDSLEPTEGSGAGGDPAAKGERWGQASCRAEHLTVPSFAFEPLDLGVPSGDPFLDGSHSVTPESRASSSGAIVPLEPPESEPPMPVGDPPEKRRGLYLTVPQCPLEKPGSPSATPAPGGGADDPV

[12] = Luminescence-based cell-based high throughput dose response assay to identify activators of the DAF-12 from the parasite S. stercoralis (ssDAF-12).; assay type: functional
[13] = biological target: T3, Oxysterols receptor LXR-beta; experiment: LXR agonists, Gal4 luciferase reporter, dose response, counter-screen for ssDAF-12 agonist project, cell-based, luminescence, HEK293, S. stercoralis campaign (AID 720737); assay type: functional; conditions: read-out: IC50 (the source's name)
[14] = biological target: T2, Heat shock factor protein 1; experiment: inhibition of MG132-induced HSE-luciferase signal, confirmation, cell-based, NIH3T3, luminescence, dose retest (AID 2382); assay type: functional;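 further: NIH3T3 fibroblasts with HSF1-driven luciferase reporter stressed by proteasome inhibitor MG132; luminescence from HSF1-driven luciferase expression after 8 hours of MG132 stress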
[15] = biological target: Cytochrome P450 2C9 (Homo sapiens, UniProt P11712)
Cytochrome P450 2C9, sequence (P11712 whole entry): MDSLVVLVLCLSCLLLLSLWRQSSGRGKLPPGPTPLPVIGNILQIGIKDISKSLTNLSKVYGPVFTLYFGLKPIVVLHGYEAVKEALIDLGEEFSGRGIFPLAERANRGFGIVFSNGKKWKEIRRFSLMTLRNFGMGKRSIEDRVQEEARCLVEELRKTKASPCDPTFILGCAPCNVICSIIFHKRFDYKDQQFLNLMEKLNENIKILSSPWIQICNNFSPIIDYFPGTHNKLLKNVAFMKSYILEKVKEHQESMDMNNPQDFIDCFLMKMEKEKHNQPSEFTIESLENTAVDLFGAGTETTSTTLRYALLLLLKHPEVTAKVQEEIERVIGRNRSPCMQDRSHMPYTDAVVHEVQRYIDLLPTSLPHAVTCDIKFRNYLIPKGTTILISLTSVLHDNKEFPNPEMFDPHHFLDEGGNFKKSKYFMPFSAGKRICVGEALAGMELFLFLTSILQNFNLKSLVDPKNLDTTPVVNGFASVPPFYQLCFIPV

[16] = cytotoxicity in HPDE-C7 cells, cell-based, fluorescence, HTS (AID 430); assay type: functional; conditions: Homo sapiens
[17] = cytotoxicity in KRAS-transformed pancreatic duct cells, primary screen, cell-based, fluorescence, HTS (AID 431); assay type: functional; conditions: Homo sapiens;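 further: cell line used: HPDE-C7K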

For CN(C)NC1CCS(=O)(=O)C1 (centres undefined), the IC50 [1] was > 100 µM (active).

In the case of O=C(CSc1nnc(-c2ccccc2O)n1Cc1ccccc1)NNC(=O)c1ccccc1O, the IC50 [2] is reported as 130 µM (active), the AC50 [3] is reported as 7.6 µM (active) and the IC50 [4] is reported as > 94.1 µM (inactive).

In the case of CCOc1ccc2[nH]c(SCc3ccc(C(=O)OC)o3)nc2c1, the EC50 [5] is reported as > 260 µM (inactive) and the IC50 [1] is reported as > 100 µM (active).

For COc1ccc2cc(C3(C)NC(=O)N(CC(=O)Nc4c(C)n(C)n(-c5ccccc5)c4=O)C3=O)ccc2c1 (centres undefined), the IC50 [1] was > 100 µM (active).

For O=Cc1cn(CC(=O)N2CCCc3ccccc32)c2ccccc12, the IC50 [2] was 22.8 µM (active).

With CN(C)c1ccc(-c2cc3ccccc3c(=O)o2)cc1 the EC50 [6] was > 67.6 µM (inactive) and the EC50 [7] was > 67.6 µM (inactive).

For NNCc1ccccc1 [BENZYLHYDRAZINE HYDROCHLORIDE], the AC50 [8] was 7.94 µM (inconclusive).

In the case of O=c1c(O)c(-c2ccccc2)oc2ccccc12 [FLAVONOL], the AC50 [8] is reported as 25.1 µM (inconclusive).

With Sc1nnc(-c2ccco2)[nH]1 the IC50 [9] was 11 µM (active) and the IC50 [10] was 12 µM (active).

In the case of CCn1c(SCc2nc(-c3ccccc3)no2)nc2ccccc21, the EC50 [11] is reported as 331 µM (active).

In the case of CC(C)NC1=NN=C(c2cccs2)CS1, the EC50 [6] is reported as > 67.6 µM (inactive) and the EC50 [7] is reported as > 67.6 µM (inactive).

In the case of CN1C(=O)C(CC(=O)Nc2ccc(F)cc2)N(Cc2cccs2)C1=S (centres undefined), the IC50 [12] is reported as > 67.5 µM (inactive) and the EC50 [13] is reported as > 67.5 µM (inactive).

With Cc1c(C(c2ccccc2Cl)c2c(O)oc3ccccc3c2=O)c(=O)n(-c2ccccc2)n1C (centres undefined) the IC50 [2] was 77.1 µM (active).

For COC(=O)[C@@H](Cc1c[nH]c2ccccc12)NC(=O)c1ccc2c(c1)OCO2, the EC50 [5] was > 260 µM (inactive), the IC50 [12] was > 67.6 µM (inactive) and the EC50 [13] was > 67.6 µM (inactive).

With Cc1oc(-c2ccc(-c3ccccc3)cc2)nc1CN(CCO)C(C)C the EC50 [6] was > 67.5 µM (inactive) and the EC50 [7] was > 67.5 µM (inactive).

With Cc1cccc(OCCNC(=O)c2cncc(Br)c2)c1 the IC50 [12] was > 67.5 µM (inactive) and the EC50 [13] was > 67.5 µM (inactive).

For CCCC(c1nnnn1Cc1ccco1)N1CCN(c2cc(Cl)ccc2C)CC1 (centres undefined), the EC50 [11] was 0.728 µM (active).

In the case of CCCCN(C(=O)CSc1cc(C)c2ccc(OC)cc2n1)c1c(N)n(Cc2ccccc2)c(=O)[nH]c1=O, the IC50 [12] is reported as > 67.5 µM (inactive) and the EC50 [13] is reported as > 67.5 µM (inactive).

With CN(C)S(=O)(=O)N(CC(=O)Nc1ccc2ccccc2c1)c1ccccc1 the EC50 [11] was 3.79 µM (active).

With CC(/C=N/NC(=O)Cn1cnc2ccccc21)=C\c1ccccc1 the EC50 [14] was > 195 µM (not active), the IC50 [12] was > 67.5 µM (inactive) and the EC50 [13] was > 67.5 µM (inactive).

With COc1cc2c(cc1OC)C(=O)OC2 [METAMECONINE] the AC50 [8] was 12.6 µM (inconclusive).

For COc1ccc(OC)c(C2C3=C(O)CCCC3=NC(C)=C2C(=O)Nc2cccnc2)c1 (centres undefined), the IC50 [2] was 52.9 µM (active).

In the case of c1ccc(N2CC3COc4ccccc4C3=N2)cc1 (centres undefined), the EC50 [6] is reported as > 67.4 µM (inactive) and the EC50 [7] is reported as > 67.4 µM (inactive).

For O=C(NCc1ccc2c(c1)OCO2)C1CC(c2cccc(Br)c2)=NO1 (centres undefined), the EC50 [11] was 1.96 µM (active) and the AC50 [15] was “inconclusive”.

With CC1=C(/C=C/C(C)=C/C=C/C(C)=C/C(=O)O)C(C)(C)CCC1 [TRETINOIN] the EC50 [16] was > 20 µM (not active), the EC50 [17] was > 20 µM (not active) and the AC50 [8] was 39.8 µM (inconclusive).

For COC(=O)NC(/C=C/c1ccccc1)[C@]1(C(C)=O)CCCC1=O (some centres undefined), the AC50 [8] was 3.98 µM (inconclusive).
